18 molecules from US20120022107A1, “2-(PIPERIDIN-1-YL)-4-AZOLYL-THIAZOLE-5-CARBOXYLIC ACID DERIVATIVES AGAINST BACTERIAL INFECTIONS” (ASTRAZENECA AB, priority 2008, published 2012) can be followed below.

Converted amounts (≈) assume the structure as drawn.

In one test the test system is M. tuberculosis. Description: MIC testing: Microplate Alamar Blue Assay. The class given is cell-based, Mycobacterium tuberculosis. The note with it: lowest concentration preventing color change from blue to pink; for MIC: Mycobacterium tuberculosis, read-out: Mtu MIC. On the technique in general: The colour change of resazurin is a common sign of viable cells or microbes.

A further test has as its system Sau. Description: Sau MIC. The test is classed as cell-based, Staphylococcus aureus. The conditions noted are these: for MIC: Staphylococcus aureus, read-out: Sau_MIC.
A further test has as its system Hinf. The experiment in a line: Hinf MIC. The conditions noted are these: for MIC: Haemophilus influenzae, read-out: Hinf_MIC. The test is classed as cell-based, Haemophilus influenzae.
The target of the next test is Msmeg (Mycolicibacterium smegmatis, UniProt A0QNE0). The experiment in a line: Msmeg IC50. The class given is biochemical.
In the next test the test system is Spn. Description: Spn MIC. The test is classed as cell-based, Streptococcus pneumoniae. The note with it: for MIC: Streptococcus pneumoniae, read-out: Spn_MIC.

Sequence of Msmeg (A0QNE0 whole entry): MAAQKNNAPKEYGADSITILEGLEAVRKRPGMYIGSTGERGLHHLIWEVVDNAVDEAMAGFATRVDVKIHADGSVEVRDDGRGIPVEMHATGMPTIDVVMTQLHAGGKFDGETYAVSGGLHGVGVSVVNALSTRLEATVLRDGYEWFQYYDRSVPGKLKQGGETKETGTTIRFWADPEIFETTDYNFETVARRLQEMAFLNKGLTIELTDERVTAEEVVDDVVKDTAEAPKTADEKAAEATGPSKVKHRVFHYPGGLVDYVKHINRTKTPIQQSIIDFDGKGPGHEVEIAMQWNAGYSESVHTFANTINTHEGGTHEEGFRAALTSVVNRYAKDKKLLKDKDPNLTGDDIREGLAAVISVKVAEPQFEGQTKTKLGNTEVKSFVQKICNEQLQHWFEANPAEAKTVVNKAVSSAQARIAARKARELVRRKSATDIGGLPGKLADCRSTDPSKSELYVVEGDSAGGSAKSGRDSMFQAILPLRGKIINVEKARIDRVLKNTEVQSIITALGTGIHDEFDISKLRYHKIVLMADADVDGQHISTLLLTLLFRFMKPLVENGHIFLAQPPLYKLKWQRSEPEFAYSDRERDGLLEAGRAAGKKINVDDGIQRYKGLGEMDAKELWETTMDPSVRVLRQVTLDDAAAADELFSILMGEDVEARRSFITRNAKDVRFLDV

Take “2-((3S,4R)-4-(3-bromo-4-chloro-5-methyl-1H-pyrrole-2- carboxamido)-3-fluoropiperidin-1-yl)-4-(1- (cyclopropylmethyl)-1H-1,2,4-triazol-5-yl) thiazole-5- carboxylic acid [Example 17]”: the “Mtu MIC” value in the test with M. tuberculosis came to 0.06 µg/mL. This molecule also yielded a Sau_MIC in the test on Sau of 0.125 µg/mL. This molecule returned a Hinf_MIC in the test on Hinf of 0.125 µg/mL. It took 4 nM to reach half-maximal inhibition on Msmeg (IC50). In the test on Spn, this molecule came in with a Spn_MIC of 0.125 µg/mL.
For the molecule `CO[C@H]1CN(c2nc(-c3ncnn3C)c(C(=O)O)s2)CC[C@H]1NC(=O)c1[nH]c(C)c(Cl)c1Br` [Example 1, 2-((3S,4R)-4-{[3-Bromo-4-chloro-5-methyl-1H-pyrrole-2-carbonyl]amino}-3-methoxypiperidin-1-yl)-4-(1-methyl-1H-1,2,4-triazol-5-yl)-1,3-thiazole-5-carboxylic acid], the MIC in the test with M. tuberculosis worked out at 0.008 µg/mL (≈ 0.0143 µM); in the test on Sau it was 0.116 µg/mL (≈ 0.208 µM); with Hinf, 8 µg/mL (≈ 14.3 µM); in the test with Spn it was 0.116 µg/mL (≈ 0.208 µM). For the same molecule, the 50% inhibitory concentration (IC50) (usually the point on the concentration scale where inhibition reaches its midpoint) against Msmeg came out at 2.6 nM.
On to `CO[C@H]1CN(c2nc(-c3ncnn3C)c(C(=O)O)s2)CC[C@H]1NC(=O)c1[nH]c(C)c(Br)c1Cl` [Example 2, 2-((3S,4R)-4-{[4-Bromo-3-chloro-5-methyl-1H-pyrrole-2-carbonyl]amino}-3-methoxypiperidin-1-yl)-4-(1-methyl-1H-1,2,4-triazol-5-yl)-1,3-thiazole-5-carboxylic acid], for which the MIC in the test on M. tuberculosis is < 0.03 µg/mL; in the test on Sau, 0.1 µg/mL (≈ 0.179 µM); with Hinf, 2.6 µg/mL (≈ 4.65 µM); with Spn, 0.1 µg/mL (≈ 0.179 µM). For the same molecule, on Msmeg, the IC50 is < 4 nM.
Regarding `CO[C@H]1CN(c2nc(-c3nccn3C)c(C(=O)O)s2)CC[C@H]1NC(=O)c1[nH]c(C)c(Cl)c1Br` [Example 3, 2-((3S,4R)-4-{[(3-bromo-4-chloro-5-methyl-1H-pyrrol-2-yl)carbonyl]amino}-3-methoxypiperidin-1-yl)-4-(1-methyl-1H-imidazol-2-yl)-1,3-thiazole-5-carboxylic acid], the MIC in the test with M. tuberculosis came to 0.125 µg/mL (≈ 0.224 µM); in the test with Sau it was 0.125 µg/mL (≈ 0.224 µM); in the test on Hinf, 0.25 µg/mL (≈ 0.448 µM); in the test on Spn, 0.125 µg/mL (≈ 0.224 µM). The molecule also displayed an IC50 at Msmeg of 6 nM.
Turning to `CO[C@H]1CN(c2nc(-c3ncnn3C)c(C(=O)O)s2)CC[C@H]1NC(=O)c1[nH]c(Cl)c(C)c1Cl` [Example 4, 2-((3S,4R)-4-{[(3,5-Dichloro-4-methyl-1H-pyrrol-2-yl)carbonyl]amino}-3-methoxypiperidin-1-yl)-4-(1-methyl-1H-1,2,4-triazol-5-yl)-1,3-thiazole-5-carboxylic acid], the MIC with M. tuberculosis was 0.125 µg/mL (≈ 0.243 µM); in the test on Sau it was 1.26 µg/mL (≈ 2.45 µM); with Hinf, 4 µg/mL (≈ 7.78 µM); in the test with Spn, 0.1 µg/mL (≈ 0.194 µM). This molecule also gave an IC50 at Msmeg of 30 nM.
As to `Cc1[nH]c(C(=O)N[C@@H]2CCN(c3nc(-c4ncnn4C)c(C(=O)O)s3)C[C@@H]2F)c(Br)c1Cl` [Example 5, 2-((3S,4R)-4-{[(3-Bromo-4-chloro-5-methyl-1H-pyrrol-2-yl)carbonyl]amino}-3-fluoropiperidin-1-yl)-4-(1-methyl-1H-1,2,4-triazol-5-yl)-1,3-thiazole-5-carboxylic acid], the MIC in the test with M. tuberculosis is < 0.06 µg/mL; with Sau, 0.106 µg/mL (≈ 0.194 µM); in the test on Hinf it was 27.3 µg/mL (≈ 50 µM); in the test with Spn it was 0.106 µg/mL (≈ 0.194 µM). For the same molecule, the IC50 against Msmeg is < 4 nM.
`Cc1[nH]c(C(=O)N[C@@H]2CCN(c3nc(-c4ncnn4C)c(C(=O)O)s3)C[C@@H]2F)c(Cl)c1Br` [Example 6, 2-((3S,4R)-4-{[(4-Bromo-3-chloro-5-methyl-1H-pyrrol-2-yl)carbonyl]amino}-3-fluoropiperidin-1-yl)-4-(1-methyl-1H-1,2,4-triazol-5-yl)-1,3-thiazole-5-carboxylic acid]: the MIC is 1 µg/mL (≈ 1.83 µM) with M. tuberculosis, 0.125 µg/mL (≈ 0.229 µM) in the test with Sau, 0.25 µg/mL (≈ 0.457 µM) in the test with Hinf and 0.5 µg/mL (≈ 0.914 µM) with Spn. In addition, on Msmeg, the IC50 turned out to be 5 nM.
For `COCCn1ccnc1-c1nc(N2CC[C@@H](NC(=O)c3[nH]c(C)c(Cl)c3Br)[C@@H](OC)C2)sc1C(=O)O` [Example 7, 2-((3S,4R)-4-{[(3-Bromo-4-chloro-5-methyl-1H-pyrrol-2-yl)carbonyl]amino}-3-methoxypiperidin-1-yl)-4-[1-(2-methoxyethyl)-1H-imidazol-2-yl]-1,3-thiazole-5-carboxylic acid] the same measures were 1 µg/mL (≈ 1.66 µM), 0.125 µg/mL (≈ 0.208 µM), 0.25 µg/mL (≈ 0.415 µM), 0.125 µg/mL (≈ 0.208 µM) and 4.6 nM.
For `CO[C@H]1CN(c2nc(-c3ncnn3C)c(C(=O)O)s2)CC[C@H]1NC(=O)c1[nH]c(C)c(C#N)c1Br` [Example 8, 2-{(3S,4R)-4-[(3-Bromo-4-cyano-5-methyl-1H-pyrrole-2-carbonyl)-amino]-3-methoxy-piperidin-1-yl}-4-(2-methyl-2H-[1,2,4]triazol-3-yl)-thiazole-5-carboxylic acid] the same measures were < 0.03 µg/mL, 0.5 µg/mL (≈ 0.91 µM), 2 µg/mL (≈ 3.64 µM), 0.125 µg/mL (≈ 0.228 µM) and < 0.25 nM.
As for `CO[C@H]1CN(c2nc(-c3ncnn3C)c(C(=O)O)s2)CC[C@H]1NC(=O)c1[nH]c(C)c(Br)c1C#N` [Example 9, 2-{(3S,4R)-4-[(4-Bromo-3-cyano-5-methyl-1H-pyrrole-2-carbonyl)-amino]-3-methoxy-piperidin-1-yl}-4-(2-methyl-2H-[1,2,4]triazol-3-yl)-thiazole-5-carboxylic acid], the MIC is 0.015 µg/mL (≈ 0.0273 µM) in the test with M. tuberculosis, 0.25 µg/mL (≈ 0.455 µM) in the test on Sau, 0.25 µg/mL (≈ 0.455 µM) with Hinf and 0.125 µg/mL (≈ 0.228 µM) in the test on Spn. The molecule also yielded an IC50 against Msmeg of 10 nM.
Turning to `CCO[C@H]1CN(c2nc(-c3ncnn3C)c(C(=O)O)s2)CC[C@H]1NC(=O)c1[nH]c(C)c(Cl)c1Br` [Example 10], the MIC with M. tuberculosis came to 0.008 µg/mL (≈ 0.014 µM); in the test with Sau, 0.125 µg/mL (≈ 0.218 µM); in the test on Hinf it was 0.125 µg/mL (≈ 0.218 µM); in the test with Spn it was 0.125 µg/mL (≈ 0.218 µM). Also, at Msmeg, the IC50 was < 2.5 nM.
Take `CCO[C@H]1CN(c2nc(-c3ncnn3C)c(C(=O)O)s2)CC[C@H]1NC(=O)c1[nH]c(C)c(Br)c1Cl` [Example 11, 2-((3S,4R)-4-(4-bromo-3-chloro-5-methyl-1H-pyrrole-2-carboxamido)-3-ethoxypiperidin-1-yl)-4-(1-methyl-1H-1,2,4-triazol-5-yl) thiazole-5-carboxylic acid]: the values for the MIC in the test on M. tuberculosis, in the test with Sau and in the test on Spn were 0.06 µg/mL (≈ 0.105 µM), 0.125 µg/mL (≈ 0.218 µM) and 0.125 µg/mL (≈ 0.218 µM), respectively. The IC50 against Msmeg was < 2.5 nM.
As for `Cc1[nH]c(C(=O)N[C@@H]2CCN(c3nc(-c4ncnn4C)c(C(=O)O)s3)C[C@@H]2OCC2CC2)c(Br)c1Cl` [Example 12, 2-((3S,4R)-4-(3-bromo-4-chloro-5-methyl-1H-pyrrole-2-carboxamido)-3-(cyclopropylmethoxy)piperidin-1-yl)-4-(1-methyl-1H-1,2,4-triazol-5-yl) thiazole-5-carboxylic acid], the MIC in the test with M. tuberculosis was determined as 0.015 µg/mL (≈ 0.025 µM); with Sau it was 0.125 µg/mL (≈ 0.209 µM); in the test with Hinf, 0.125 µg/mL (≈ 0.209 µM); with Spn, 0.125 µg/mL (≈ 0.209 µM). On Msmeg, this molecule gave a 50% inhibitory concentration (IC50) of 4 nM.
`CCn1ncnc1-c1nc(N2CC[C@@H](NC(=O)c3[nH]c(C)c(Cl)c3Br)[C@@H](OC)C2)sc1C(=O)O` [Example 13, 2-((3S,4R)-4-(3-bromo-4-chloro-5-methyl-1H-pyrrole-2-carboxamido)-3-methoxypiperidin-1-yl)-4-(1-ethyl-1H-1,2,4-triazol-5-yl) thiazole-5-carboxylic acid]: the MIC with M. tuberculosis stood at 0.015 µg/mL (≈ 0.0262 µM); with Sau, 0.125 µg/mL (≈ 0.218 µM); in the test with Hinf, 0.125 µg/mL (≈ 0.218 µM); with Spn, 0.125 µg/mL (≈ 0.218 µM). Further, the 50% inhibitory concentration (IC50) against Msmeg was < 2.5 nM.
For `CCn1ncnc1-c1nc(N2CC[C@@H](NC(=O)c3[nH]c(C)c(Br)c3Cl)[C@@H](OC)C2)sc1C(=O)O` [Example 14, 2-((3S,4R)-4-(4-bromo-3-chloro-5-methyl-1H-pyrrole-2-carboxamido)-3-methoxypiperidin-1-yl)-4-(1-ethyl-1H-1,2,4-triazol-5-yl) thiazole-5-carboxylic acid], the MIC was found to be 0.03 µg/mL (≈ 0.0524 µM) with M. tuberculosis, 0.125 µg/mL (≈ 0.218 µM) in the test on Sau, 0.125 µg/mL (≈ 0.218 µM) in the test with Hinf and 0.125 µg/mL (≈ 0.218 µM) in the test with Spn. Also, the IC50 against Msmeg is < 2.5 nM.
In the case of `CCn1ncnc1-c1nc(N2CC[C@@H](NC(=O)c3[nH]c(Cl)c(C)c3Cl)[C@@H](OC)C2)sc1C(=O)O` [Example 15, 2-{(3S,4R)-4-[(3,5-Dichloro-4-methyl-1H-pyrrole-2-carbonyl)-amino]-3-methoxy-piperidin-1-yl}-4-(2-ethyl-2H-[1,2,4]triazol-3-yl)-thiazole-5-carboxylic acid], the MIC amounted to 0.5 µg/mL (≈ 0.946 µM) in the test on M. tuberculosis, 0.25 µg/mL (≈ 0.473 µM) with Sau, 1 µg/mL (≈ 1.89 µM) in the test on Hinf and 0.25 µg/mL (≈ 0.473 µM) in the test with Spn. The concentration for half-maximal inhibition (IC50) on Msmeg amounted to 45 nM.
On to `COCCn1ncnc1-c1nc(N2CC[C@@H](NC(=O)c3[nH]c(C)c(Br)c3Cl)[C@@H](OC)C2)sc1C(=O)O` [Example 21, 2-((3S,4R)-4-(4-bromo-3-chloro-5-methyl-1H-pyrrole-2-carboxamido)-3-methoxypiperidin-1-yl)-4-(1-(2-methoxyethyl)-1H-1,2,4-triazol-5-yl) thiazole-5-carboxylic acid], for which the MIC came to 0.06 µg/mL (≈ 0.0995 µM) in the test with M. tuberculosis, 0.125 µg/mL (≈ 0.207 µM) in the test with Sau and 0.125 µg/mL (≈ 0.207 µM) with Spn. The IC50 against Msmeg was < 2.5 nM.
Consider `COCCn1ncnc1-c1nc(N2CC[C@@H](NC(=O)c3[nH]c(Cl)c(C)c3Cl)[C@@H](OC)C2)sc1C(=O)O` [Example 22, 2-((3S,4R)-4-(3,5-dichloro-4-methyl-1H-pyrrole-2-carboxamido)-3-methoxypiperidin-1-yl)-4-(1-(2-methoxyethyl)-1H-1,2,4-triazol-5-yl) thiazole-5-carboxylic acid], for which the results for the MIC in the test with M. tuberculosis, in the test on Sau and in the test on Spn were 0.5 µg/mL (≈ 0.895 µM), 0.25 µg/mL (≈ 0.448 µM) and 0.5 µg/mL (≈ 0.895 µM), respectively. On Msmeg, this molecule displayed an IC50 of 47 nM.
